Measurements from patent EP0546533A2, “Medical use of kininogenase” (SANWA KAGAKU KENKYUSHO CO., LTD., priority 1991, dated 1993).
Counter-ions that a name gives are not always drawn. Non-standard residues stand in square brackets, D forms with d. Residues, ends and D or L forms follow the SMILES beside them. *: point of attachment. pNA = O=[N+]([O-])c1ccc(N*)cc1; AMC = Cc1cc(=O)oc2cc(N*)ccc12

Key:
[1] = molecular target: T1, kininogenase extracted and purified from human urine (original solution) (Homo sapiens, UniProt P06870); experiment: Enzymatic dynamic constants with lower molecule synthetic substrates; format: biochemical; conditions: synthetic substrate
T1 construct: from tissue; host or cells: human urine (pooled, healthy males)
T1 sequence (P06870 25-262): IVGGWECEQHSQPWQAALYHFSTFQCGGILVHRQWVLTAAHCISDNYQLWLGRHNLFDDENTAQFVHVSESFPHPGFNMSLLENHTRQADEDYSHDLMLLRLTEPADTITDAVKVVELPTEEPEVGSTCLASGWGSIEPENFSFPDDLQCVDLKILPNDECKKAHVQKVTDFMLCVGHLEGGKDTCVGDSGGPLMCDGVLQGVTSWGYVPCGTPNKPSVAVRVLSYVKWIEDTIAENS
Source text: In the next place, An ability of the kininogenase for making free the kinin was periodically checked by using canine lower molecule kininogen, human lower molecule kininogen and human higher molecule kininogen in various concentration, as substrates to calculate enzymatic dynamic constants of the kininogenase.
An activity of the kininogenase to decomposition of lower molecule synthetic substrates was checked as in said Item (A) to calculate enzymatic dynamic constants of the kininogenase.

[2] = test system: model animal destroyed in its internal capsule; format: in vivo, New Zealand white rabbit; conditions: citicholine 100mg/kg i.v. for 30 minutes
Source text: An influence of kininogenase to an improvement in an arousal reaction of brain wave in cerebral cortex was checked by selecting a rabbit as a test animal, electrically canterigating an internal capsule to prepare a model animal with symptoms similar to a person caused a cerebral hemorrhage, and administrating the drug, since the destruction of internal capsule gives a partial obstacle to an invigoration system in ascending rectacular region, which has been said as having a close relation with the arousal reaction of brain-wave in cortex.
A cannula was fitted in an auricle vein of a female New Zealand white rabbit to anethetize the animal by intravenously administrating pentbarbital-Na (30mg/kg). […] A concentration of PC02 in the artery blood was periodically measured by a blood gas analyzer to adjust the respirator, so that the concentration lies in a suitable level of 35 ± 5mmHg). […]
The brain-wave was monopolarly derived by the screw type electrode to record on a polygraph and also recorded on a magnetic tape by a data recorder. A cardiogram, blood pressure and number of heart beats were recorded on the polygraph through a secondary induction, a pressure transducer and a momentary heart beat recorder which subjects to cause a trigger the R wave for the cardiogram, respectively. […]
A voltage firstly appeared an arousal reaction, when a voltage for stimulating the rectacular regions shall be raised up with an interval of 5V, and a period of time during which the arousal reaction continues, when the rectacular regions are stimulated with voltage of 4V were defined as the "arousal reaction threshold value" and "arousal reaction sustaining time". The threshold value and sustaining time were visually judged from waves recorded on the charts and shown with units of voltage value (V) and time (sec.). […]

[3] = test system: middle cerebral artery obstructive model animal; experiment: Nerve dysfunction, cerebral circulation and brain wave in middle cerebral artery obstruction model; format: in vivo, Japanese monkey; conditions: citicholine 10mg/kg intravenous infusion, 24 hours after obstruction
Protocol: A tube was fitted to left-outernal carotid artery of anesthetized Japanese monkey and a silicone resin pellet [1 mm (q) ) x 5mm] was inserted into the artery through the tube to prepare a middle cerebral artery obstructive model animal.
After lapsed 5 minutes from the obstruction of left middle cerebral artery, kininogenase (2.5 x 10-^2 PNA units/kg) or citicholine (10mg/kg) as a test and control drugs was administrated through an intravenous infusion.

[4] = test system: model animal with hypoxia; experiment: Influence to model animal with hypoxia (5% O2 breathing); format: in vivo, New Zealand white rabbits
Protocol: Each of female New Zealand white rabbits (body weight of about 3kg) were anethetized with pentbarbital-Na, and a tube was inserted, at once, into their trachea to cause an adjusted breathing with air through a respirator.
After intravenously injecting 0.5mg/kg of tubocurarine chloride to cause an amyotonia, the animal was transferred to a fixing device to cause an orientation of her brain to peel bellies along a median line in its vertex and to form two apertures or windows of 0.5 x 0.5cm at right front portion and 1.0 x 0.5cm at right rear portion of the skull. To the front window, a silver ball electrode was set to measure brain-wave in the cortex, and a local blood flow in the cortex and P02 in brain were measured by utilizing the rear window. Number of heat beats was measured by making trigger R-wave of the […]. These parameters were recorded by feeding the same to a polygraph, crossed thermocouple and recticorder.
After stabilized of each parameters, the air from the respirator was changed to 5% 02 and at once, drugs given later was intravenously injected to continue the experiment for 10 minutes.
• (A) Control group (n = 3) : • Administrated 3.3ml of phosphate buffer (0.05M, pH 7) for 30 minutes at rate of 0.11 ml/min. • (B) 5.0 x 10-^3 PNA units/kg Administration group (n = 3) : • Administrated 3.3ml of solution for 30 minutes at rate of 0.11 ml/min., which solution was prepared by diluting a kininogenase solution of 5.0 x 10-^2 PNA units/ml with phosphate buffer (0.05M, pH 7) by 10 folds. • (C) 2.5 x 10-^3 PNA units/kg Administration group (n = 3) : • Administrated 3.3ml of solution for 30 minutes at rate of 0.11 ml/min., which solution was prepared by diluting a kininogenase solution of 2.5 x 10-^2 PNA units/ml with phosphate buffer (0.05M, pH 7) by 10 folds. • (D) 1.5 x 10-^3 PNA units/kg Administration group (n = 3) : • Administrated 3.3ml of solution for 30 minutes at rate of 0.11 ml/min., which solution was prepared by diluting a kininogenase solution of 1.5 x 10-^2 PNA units/ml with phosphate buffer (0.05M, pH 7) by 10 folds. • (E) Citicholine (100mg/kg) administration group (n = 3) : • Administrated 3.3ml of a solution for 30 minutes at rate of 0.11 ml/min., which solution was prepared by taking 4ml of Nicholine injection solution (250mg/2ml), and diluting the same with phosphate buffer (0.05M, pH 7) to make the drug concentration to 100mg/kg. • (F) Citicholine (10mg/kg) administration group (n = 3) : • Administrated 3.3ml of a solution for 30 minutes at rate of 0.11 ml/min., which solution was prepared by taking 2ml of Nicholine injection solution (100mg/2ml), and diluting the same with phosphate buffer (0.05M, pH 7) to make the drug concentration to 10mg/kg. • (G) Nicardipine (4a g/kg) administration group (n = 3) : • Taking 10mg of Nicardipine, and diluting the same with saline to make the drug concentration to 4µ g/kg to administrate 0.1 ml/kg for 20 seconds.
A ratio of change was calculated on the number of heart beats, and an amount of change was calculated on the P02 in brain and local blood flow in brain. The brain-wave was analyzed with an analyzer (Type ATAC-450 marketed by Japan Photoelectric Co., Ltd.) to print out results. A statistic inspection or examination was carried out with use of a program of FM 11 marketed by Fujitu Co., Ltd. and judged as there is a significant difference, when P value is 0.05 or less in Student's t-test.

[5] = test system: brain in ischemic state; experiment: Cerebral ischemia by ligation of vertebral and common carotid arteries, then release; format: in vivo, rabbit
Protocol: Both of side vertebral arteries of a healthy rabbit were permanently ligated, both of the common carotid arteries were ligated for 40 minutes to make the brain in ischemic state, and then released the ligation of the common carotid arteries to observe a local blood flow and brain-wave in cerebral cortex portion and to measure concentrations of ATP and lactate in the cortex portion, at the time lapsed 15 minutes from the release of blood flow in the common carotid arteries. Following drugs were administrated in following manner. Citicholine : • Intravenously administrated for 30 minutes from 15 minutes before the ligation of common carotid arteries and at a dose of 100mg/kg. Nicardipine : • Rapidly administrated into an upper portion of small intestine at the time of 15 minutes before the ligation of common carotid arteries.

[6] = test system: region occurred a cerebral infarction; experiment: Influence to region of cerebral infarction 24 hours after glass bead injection; format: in vivo, rabbit; conditions: 100mg/kg, sustaining administration for 30 minutes
Protocol: With use of model animals as in Pharmacological Test Example 4, an influence of a drug to region occurred a cerebral infarction at the time after lapsed 24 hours from the injection of glass bead was checked.

[7] = test system: model animal with cerebral infarction; experiment: Cerebral circulation and metabolism in cerebral infarction model (micro-glass bead injection); format: in vivo, rabbit
Protocol: A micro-glass bead was injected into right hemicerebrum of an anethetized healthy rabbit to prepare a model animal with cerebral infarction. After administration of a drug, local blood flow (in cortex portion), micro-circulation in cerebral pia leptmeninges, distribution of cerebral blood flow and concentrations of P02, ATP, lactate, pyruvate, glucose and glucose-6-phosphate were measured. The measurement of biochemical substances was carried out after lapsed 60 minutes from the administration of the drug.
A change in diameter arterioles in cerebral pia leptmeninges was observed, as to blood vessels having diameters of >100, >50 to <100 and <50u m, under microscope and according to Cranial window method.

[8] = 5% O2, citicholine 100mg/kg or 10mg/kg i.v., Nicardipine 4µ g/kg

`CCOC(=O)[C@H](CCCNC(=N)N)NC(=O)c1ccccc1` [BAEE, Benzoyl-L-Arg ethyl ether hydrochloride] was tested, and the Km [1] was 252 µM and the Vmax [1] was 4.23e-05 min⁻¹ mg⁻¹.

For `C[N+](C)(C)CCOP(=O)(O)OP(=O)([O-])OC[C@H]1O[C@@H](n2ccc(N)nc2=O)[C@H](O)[C@@H]1O` [Citicholine], the “frequency components of brain wave in cortex portion (quick wave components)” value ([2]; reported as a tendency) was “reduction of quick wave components is suppressed”, the “Sustaining period of time in the arousal reaction” value ([2]; versus control group) was “not recognized” and the “Threshold value of arousal reaction” value ([2]; versus control group) was “No apparent change”. For the same compound, the “blood flow in cerebral cortex” value [3] was “no improvement”, the brain wave activities [3] was “no improvement” and the neuro symptoms ([3]; versus control group) was “improvement”. The “Influence to P02 in cerebral cortex (suppression of decrease)” value [4, 8] was “no suppressing effect”, the “Influence to local blood flow in cerebral cortex (suppression of increase)” value [4, 8] was “no effect” and the “Influence to brain-wave in cortex portion” value ([4]; 5% O2, citicholine at dose of 100mg/kg) was “low-amplitude and quick wave”. For the same compound, the “Influence to number of heart beats” value ([4]; versus control group, citicholine 100mg/kg or 10mg/kg i.v. for 30 minutes, Nicardipine 4µ g/kg for 20 seconds) was “no significant difference”, the “local blood flow in cerebral cortex portion after release of blood flow” value ([5]; citicholine 100mg/kg i.v. for 30 minutes, Nicardipine rapidly into upper small intestine, 15 minutes before ligation) was “did not suppresses the blood flow increase” and the “reactivation of flattened brain-wave” value ([5]; citicholine 100mg/kg i.v., Nicardipine into upper small intestine) was “not recognized”. For the same compound, the “Region of infarction (%)” value ([6]; 24 hours after glass bead injection) was 30.8 ± 19.8%, the “Inhibition (%)” value ([6]; versus control) was -35.9% and the “suppression of ATP decrease” value ([7]; 60 minutes after administration of the drug) was “did not show the suppress of ATP decrease”. The “Blood flow in cerebral cortex portion at the ischemic side” value ([7]; Nicardipine 0.5mg/kg rapid into upper small intestine, citicholine 10mg/kg sustaining intravenous) was “no increase”.

`Cc1cc(=O)oc2cc(NC(=O)[C@H](CCCNC(=N)N)NC(=O)[C@H](Cc3ccccc3)NC(=O)[C@@H]3CCCN3)ccc12` [MCA, L-Pro-L-Phe-L-Arg-4-methyl-cumaryl-7-amide] (H-Pro-Phe-Arg-{AMC}) gave a Km [1] of 34 µM and a Vmax [1] of 2.57e-05 min⁻¹ mg⁻¹.

`COC(=O)C1=C(C)NC(C)=C(C(=O)OCCN(C)Cc2ccccc2)C1c1cccc([N+](=O)[O-])c1` (centres unmarked) [Nicardipine] was tested, and the “Influence to local blood flow in cerebral cortex (suppression of increase)” value [4, 8] was “no effect”.

Compound `CC(C)C[C@H](NC(=O)[C@H](N)C(C)C)C(=O)N[C@@H](CCCNC(=N)N)C(=O)Nc1ccc([N+](=O)[O-])cc1` [PNA, H-D-Val-L-Leu-L-Arg-p-nitroanilide dihydrochloride] (H-[dV]-Leu-Arg-pNA) has a Km [1] of 8.95 µM and a Vmax [1] of 7.8e-06 min⁻¹ mg⁻¹.
